Test results from article PMC12214830, “The human RIF1-Long isoform interacts with BRCA1 to promote recombinational fork repair under DNA replication stress” (Nature Communications, 2025).

Key:
[1] = test system: HCT116 cells; assay: colony formation (clonogenic survival) assay, HCT116 cells; assay type: cell-based, human; details: for colony survival, RIF1-L cells: HCT116 expressing only RIF1-L, versus RIF1-WT; for colony survival, RIF1-S cells: HCT116 expressing only RIF1-S, versus RIF1-KO
Procedure: For HCT116-derived cells, cells were plated in 6-well plates at 250 cells/well, in triplicate for each drug concentration. Cells were incubated with drugs for 24 h, after which drug-containing medium was replaced with drug-free medium. Seven days later colony counting was performed using a Nikon Eclipse TS100 microscope. For the IR sensitivity test, cells were plated following the same procedure, then irradiated at desired doses and incubated for 7 days before colony counting. Clusters with more than 20 cells were counted as colonies. Mean and standard error of each triplicate was calculated.

[2] = test system: RIF1-BRCA1 proximity in RPE-1 cells; assay: RIF1-BRCA1 proximity ligation assay, RPE-1 cells; assay type: cell-based, human
Procedure: (§1) Proximity ligation assays were performed using the Duolink In Situ PLA Fluorescence Protocol (Sigma-Aldrich, DUO92101) following the manufacturer’s instruction. Cells were grown on glass coverslips and treated as indicated for specific experiments. Cells were then permeabilized with 0.5% TritonX-100 in PBS for 10 min on ice, and fixed with 3% formaldehyde, 2% sucrose in PBS for 10 min at room temperature (RT). After fixation, coverslips were blocked in 3% BSA in PBS for 1 h at RT and incubated with primary antibodies (anti-RIF1, Bethel laboratories A300-568A, 1:1000 dilution; anti-BRCA1, Santa Cruz Biotechnologies, sc-6954, 1:200 dilution), for 1 h at RT in a humidity chamber. Primary antibodies were then washed off with PLA washing buffer A supplied in the Duolink In Situ PLA kit. Coverslips were next incubated sequentially with PLA Probes (1 h at 37 °C), ligation solution (30 min at 37 °C) and amplification solution (100 min at 37 °C), with washes by washing buffer A in between each step. At the end of incubation, coverslips were washed with washing buffer B supplied in the Duolink In Situ PLA kit. Coverslips were then mounted on glass slides with PLA Mounting medium with DAPI. Images were captured by fluorescence microscopy (Zeiss Axio Imager). PLA foci number in each nucleus were analysed by CellProfiler Software[74] with a custom-made pipeline.
For EdU labelling combined with proximity ligation assay, cells were labelled with 10 µM EdU for 15 min, washed free of EdU and next incubated with medium containing 4 mM HU medium for 4 h. Cells were then permeabilized, fixed and subjected to RIF1-BRCA1 PLA procedures. After all PLA steps, EdU detection was performed following manufacturer’s instructions in the Click-iT EdU Imaging Kit (Invitrogen, C10640).
(§2) For proximity ligation assays and immunofluorescence signal intensity measurements, when comparing between two samples, statistical significance of differences was calculated by Mann-Whitney test for non-parametric distributions using GraphPad Prism software (v.9). When comparing among three or more samples, p values were calculated by Kruskal-Wallis test for non-parametric distributions with Dunn’s multiple comparisons using GraphPad Prism software (v.9). For RIF1 foci formation analysis (Fig. 6B), p values were calculated by two-tailed Student’s t test. For nuclear BRCA1 intensity fold change analyses (Fig. 6C, D), p values were calculated by two-tailed one-sample t test using GraphPad Prism software (v.9). For RAD51 foci formation analyses (Fig. 7B, E and Supplementary Fig. 7B), p values were calculated by chi-square test. For HR Reporter assay analysis (Fig. 7G and Supplementary Fig. 7L), p values were calculated by two-tailed paired Student’s t test. For micronuclei frequency analysis (Fig. 7H), p values were calculated by one-tailed paired Student’s t test. All Student’s t tests were performed with Excel T.TEST function. Chi-square tests were performed with the online Chi-square test calculator at https://www.socscistatistics.com/tests/chisquare2/default2.aspx. Sample number n for all box-and-whisker plots and dot plots are listed in Supplementary Data 1.

[3] = test system: RIF1-BRCA1 proximity in HeLa cells; assay: RIF1-BRCA1 proximity ligation assay, HeLa cells; assay type: cell-based, human; details: HeLa +RIF1-L
Procedure: as §1, §2

[4] = test system: RIF1-L-pS2265 antibody; assay: ELISA, RIF1-L pS2265 antibody binding to exon 31 peptides; set-up: key: absorbance at 450 nm, blank-subtracted
Procedure: Two biotinylated peptides corresponding to exon 31 of human RIF1-L without phosphorylation (Biotin-(long chain)-[…]) and with phosphorylation at S2265 (Biotin-(long chain)-[…]-pS-[…]) were synthesised by Eurogentec Ltd (Southampton, Hampshire, UK). Two peptides were mixed in a variable ratio of 0–1% phosphorylated peptide/total peptide. The concentration of total peptide was kept constant at 250 nM in the ELISA wash buffer (1x TBS with 0.1% BSA and 0.05% Tween-20). The peptides were incubated within streptavidin-coated 96-well plates (Pierce Streptavidin Coated High Capacity Plates, Thermo Scientific, 15500) for 2 h at room temperature. After washing with ELISA wash buffer, the RIF1-L pS2265 phospho-antibody (1:2500 dilution) was added and incubated for 2 h at room temperature, followed by washing and incubation with HRP-conjugated secondary antibody (anti-rabbit; Bio-Rad #1706515, 1/10,000 dilution) for 1 h at room temperature. After washing, TMB substrate solution (1-Step Slow TMB-Elisa Substrate Solution, ThermoFisher, 34024) was added to develop the blue colour. 1 N HCl was then added to stop the reaction. Absorbance at 450 nm was measured. The average readings of the blank wells were subtracted. Mean and standard deviations of technical triplicates are shown.

[5] = test system: micronuclei; assay: micronuclei frequency, HeLa cells; assay type: cell-based, human; details: Fig.7H
Procedure: as §2

[6] = Fig S4I, ATMi (KU-60019) 2µM + HU 4mM 24hr
[7] = Fig S4J, DNA-PKi (NU-7441) 1µM + HU 4mM 24hr
[8] = HeLa RIF1 KO + GFP-RIF1 derivative cells, HU, experiment 07Jun2024
[9] = HeLa RIF1 KO + GFP-RIF1 derivative cells, unt, experiment 07Jun2024

## C[C@@]1(CO)[C@H](O)CC[C@@]2(C)[C@H]1CC[C@H]1C[C@@H]3C[C@@]12CC[C@]3(O)CO [APH, aphidicolin]
[1]
  colony survival, RIF1-L cells: RIF1-L conferred resistance comparable to RIF1-WT
  colony survival, RIF1-S cells: exhibited hypersensitivity to these drugs similar to RIF1-KO cells
[2]; APH 4 µM 24 h
  RIF1-BRCA1 PLA foci: also induced PLA foci
[2]; Fig 3C, APH 4 µM 24 h
  RIF1-BRCA1 PLA foci per nucleus, mean: 1.540
  RIF1-BRCA1 PLA foci per nucleus, median: 1

## CC[C@@]1(O)C(=O)OCc2c1cc1n(c2=O)Cc2cc3ccccc3nc2-1 [CPT, camptothecin]
[1]
  colony survival, RIF1-L cells: RIF1-L conferred resistance comparable to RIF1-WT
  colony survival, RIF1-S cells: exhibited hypersensitivity to these drugs similar to RIF1-KO cells
[2]; CPT 100 nM 24 h
  RIF1-BRCA1 PLA foci: also induced PLA foci
[2]; Fig 3C, CPT 100 nM 24 h
  RIF1-BRCA1 PLA foci per nucleus, mean: 4.982
  RIF1-BRCA1 PLA foci per nucleus, median: 4

## C[C@@H]1CN(CC(=O)Nc2ccc3c(c2)Cc2cccc(-c4cc(=O)cc(N5CCOCC5)o4)c2S3)C[C@H](C)O1 [KU-60019]
[3]; [6]
  RIF1-BRCA1 PLA foci per nucleus, mean: 18.33
  RIF1-BRCA1 PLA foci per nucleus, median: 2, 17, 17
[3]; ATMi (KU-60019) 2 µM 24 h + HU 4 mM 24 h
  RIF1-BRCA1 PLA: no apparent effect

## O=c1cc(N2CCOCC2)oc2c(-c3cccc4c3sc3ccccc34)cccc12 [NU-7441]
[2]; DNA-PKi (NU-7441) 1 µM 24 h + HU 4 mM 24 h
  RIF1-BRCA1 PLA: no apparent effect
[2]; [7]
  RIF1-BRCA1 PLA foci per nucleus, mean: 7.597
  RIF1-BRCA1 PLA foci per nucleus, median: 0, 5, 5

## Biotin-(long chain)-HNTTSAKGFLSPGSR-pS-PKFKSSKKCL [RIF1-L-phosphoS2265 peptide, biotinylated exon 31 peptide of human RIF1-L phosphorylated at S2265]
[4]; 0.00% phosphorylated/total peptide (250 nM total), mean of technical triplicates
  A450, Average: 0.009
[4]; 0.00% phosphorylated/total peptide (250 nM total), replicate 1
  A450: 0.01
[4]; 0.00% phosphorylated/total peptide (250 nM total), replicate 2
  A450: 0.008
[4]; 0.00% phosphorylated/total peptide (250 nM total), replicate 3
  A450: 0.01
[4]; 0.13% phosphorylated/total peptide (250 nM total), mean of technical triplicates
  A450, Average: 0.104
[4]; 0.13% phosphorylated/total peptide (250 nM total), replicate 1
  A450: 0.106
[4]; 0.13% phosphorylated/total peptide (250 nM total), replicate 2
  A450: 0.104
[4]; 0.13% phosphorylated/total peptide (250 nM total), replicate 3
  A450: 0.103
[4]; 0.25% phosphorylated/total peptide (250 nM total), mean of technical triplicates
  A450, Average: 0.166
[4]; 0.25% phosphorylated/total peptide (250 nM total), replicate 1
  A450: 0.16
[4]; 0.25% phosphorylated/total peptide (250 nM total), replicate 2
  A450: 0.169
[4]; 0.25% phosphorylated/total peptide (250 nM total), replicate 3
  A450: 0.169
[4]; 0.50% phosphorylated/total peptide (250 nM total), mean of technical triplicates
  A450, Average: 0.239
[4]; 0.50% phosphorylated/total peptide (250 nM total), replicate 1
  A450: 0.247
[4]; 0.50% phosphorylated/total peptide (250 nM total), replicate 2
  A450: 0.216
[4]; 0.50% phosphorylated/total peptide (250 nM total), replicate 3
  A450: 0.255
[4]; 1.00% phosphorylated/total peptide (250 nM total), mean of technical triplicates
  A450, Average: 0.346
[4]; 1.00% phosphorylated/total peptide (250 nM total), replicate 1
  A450: 0.348
[4]; 1.00% phosphorylated/total peptide (250 nM total), replicate 2
  A450: 0.343
[4]; 1.00% phosphorylated/total peptide (250 nM total), replicate 3
  A450: 0.347
[4]; Standard 0.13%, average of 3, right block
  A450, Average: 0.104
[4]; Standard 0.13%, replicate 1, left block
  A450: 0.155
[4]; Standard 0.13%, replicate 1, right block (0.049 below left block)
  A450: 0.106
[4]; Standard 0.13%, replicate 2, left block
  A450: 0.153
[4]; Standard 0.13%, replicate 2, right block (0.049 below left block)
  A450: 0.104
[4]; Standard 0.13%, replicate 3, left block
  A450: 0.152
[4]; Standard 0.13%, replicate 3, right block (0.049 below left block)
  A450: 0.103
[4]; Standard 0.25%, average of 3, right block
  A450, Average: 0.166
[4]; Standard 0.25%, replicate 1, left block
  A450: 0.209
[4]; Standard 0.25%, replicate 1, right block (0.049 below left block)
  A450: 0.16
[4]; Standard 0.25%, replicate 2, left block
  A450: 0.218
[4]; Standard 0.25%, replicate 2, right block (0.049 below left block)
  A450: 0.169
[4]; Standard 0.25%, replicate 3, left block
  A450: 0.218
[4]; Standard 0.25%, replicate 3, right block (0.049 below left block)
  A450: 0.169
[4]; Standard 0.50%, average of 3, right block
  A450, Average: 0.239
[4]; Standard 0.50%, replicate 1, left block
  A450: 0.296
[4]; Standard 0.50%, replicate 1, right block (0.049 below left block)
  A450: 0.247
[4]; Standard 0.50%, replicate 2, left block
  A450: 0.265
[4]; Standard 0.50%, replicate 2, right block (0.049 below left block)
  A450: 0.216
[4]; Standard 0.50%, replicate 3, left block
  A450: 0.304
[4]; Standard 0.50%, replicate 3, right block (0.049 below left block)
  A450: 0.255
[4]; Standard 1.00%, average of 3, right block
  A450, Average: 0.346
[4]; Standard 1.00%, replicate 1, left block
  A450: 0.397
[4]; Standard 1.00%, replicate 1, right block (0.049 below left block)
  A450: 0.348
[4]; Standard 1.00%, replicate 2, left block
  A450: 0.392
[4]; Standard 1.00%, replicate 2, right block (0.049 below left block)
  A450: 0.343
[4]; Standard 1.00%, replicate 3, left block
  A450: 0.396
[4]; Standard 1.00%, replicate 3, right block (0.049 below left block)
  A450: 0.347

## Phleomycin
[1]; HCT116 expressing only RIF1-L or only RIF1-S
  colony growth after treatment, RIF1-L and RIF1-S cells: able to support colony growth

## RIF1-L -APKF
[5]; HU, experiment 14Apr2024
  Micronuclei per 100: 14.2857
[5]; [8]
  Micronuclei per 100: 12.35
[5]; [9]
  Micronuclei per 100: 6.03
[5]; unt, experiment 14Apr2024
  Micronuclei per 100: 4.214

## RIF1-S
[5]; HU, experiment 14Apr2024
  Micronuclei per 100: 12.4358
[5]; [8]
  Micronuclei per 100: 12.93
[5]; [9]
  Micronuclei per 100: 6.41
[5]; unt, experiment 14Apr2024
  Micronuclei per 100: 6.217
